These results are taken from PubChem BioAssay AID1259407 (Chemical Carcinogenesis Research Information System (CCRIS), 2018).

This series relates to CCRIS mutagenicity, Ames/micronucleus/aberration tests. The series can be described thus: CCRIS mutagenicity studies.
Where [1] appears, read: Test System: AMES SALMONELLA TYPHIMURIUM, Strain/Indicator: TA100, Metabolic Activation: NONE, Method: STANDARD PLATE.
[2] abbreviates: Test System: AMES SALMONELLA TYPHIMURIUM, Strain/Indicator: TA98, Metabolic Activation: NONE, Method: STANDARD PLATE.

Calls of active or inactive are those of the source. How the calls were made is not given here.

For `CC1(C)S[C@@H]2[C@H](NC(=O)[C@H](N)c3ccccc3)C(=O)N2[C@H]1C(=O)O`, the mutagenic call runs as follows: (End Point: IN VITRO CHROMOSOMAL ABERRATIONS, Test System: CHO CELLS, Metabolic Activation: NONE) “inactive; negative; testing limited by solubility of chemical”; (End Point: IN VITRO CHROMOSOMAL ABERRATIONS, Test System: CHO CELLS, Metabolic Activation: RAT, LIVER, S-9, AROCLOR 1254) “inactive; negative; testing limited by solubility of chemical”; (Test System: AMES SALMONELLA TYPHIMURIUM, Strain/Indicator: TA98, Metabolic Activation: HAMSTER, LIVER, S-9, AROCLOR 1254, Method: PREINCUBATION) “inactive; negative”; (Test System: AMES SALMONELLA TYPHIMURIUM, Strain/Indicator: TA98, Metabolic Activation: NONE, Method: PREINCUBATION) “inactive; negative”; (Test System: AMES SALMONELLA TYPHIMURIUM, Strain/Indicator: TA98, Metabolic Activation: RAT, LIVER, S-9, AROCLOR 1254, Method: PREINCUBATION) “inactive; negative”; (Test System: AMES SALMONELLA TYPHIMURIUM, Strain/Indicator: TA100, Metabolic Activation: HAMSTER, LIVER, S-9, AROCLOR 1254, Method: PREINCUBATION) “inactive; negative”. Besides, the mutagenic call reads like this: (Test System: AMES SALMONELLA TYPHIMURIUM, Strain/Indicator: TA100, Metabolic Activation: NONE, Method: PREINCUBATION) “inactive; negative”; (Test System: AMES SALMONELLA TYPHIMURIUM, Strain/Indicator: TA100, Metabolic Activation: RAT, LIVER, S-9, AROCLOR 1254, Method: PREINCUBATION) “inactive; negative”; (Test System: AMES SALMONELLA TYPHIMURIUM, Strain/Indicator: TA1535, Metabolic Activation: HAMSTER, LIVER, S-9, AROCLOR 1254, Method: PREINCUBATION) “inactive; negative”; (Test System: AMES SALMONELLA TYPHIMURIUM, Strain/Indicator: TA1535, Metabolic Activation: NONE, Method: PREINCUBATION) “inactive; negative”; (Test System: AMES SALMONELLA TYPHIMURIUM, Strain/Indicator: TA1535, Metabolic Activation: RAT, LIVER, S-9, AROCLOR 1254, Method: PREINCUBATION) “inactive; negative”; (Test System: AMES SALMONELLA TYPHIMURIUM, Strain/Indicator: TA1537, Metabolic Activation: HAMSTER, LIVER, S-9, AROCLOR 1254, Method: PREINCUBATION) “inactive; negative”. Moreover, the mutagenic call is, setting by setting: (Test System: AMES SALMONELLA TYPHIMURIUM, Strain/Indicator: TA1537, Metabolic Activation: NONE, Method: PREINCUBATION) “inactive; negative”; (Test System: AMES SALMONELLA TYPHIMURIUM, Strain/Indicator: TA1537, Metabolic Activation: RAT, LIVER, S-9, AROCLOR 1254, Method: PREINCUBATION) “inactive; negative”; (Test System: MOUSE LYMPHOMA, Strain/Indicator: L5178Y (TK+/TK-), Metabolic Activation: NONE, Method: SUSPENSION/PLATE) “inactive; negative”; (Test System: MOUSE LYMPHOMA, Strain/Indicator: L5178Y (TK+/TK-), Metabolic Activation: RAT, LIVER, S-9, AROCLOR 1254, Method: SUSPENSION/PLATE) “inactive; negative”.

As to `O=c1[nH]c(=O)n([C@H]2C[C@H](O)[C@@H](CO)O2)cc1COO`, the mutagenic call is “active; positive” under setting [1] and “active; positive” (Test System: AMES SALMONELLA TYPHIMURIUM, Strain/Indicator: TA102, Metabolic Activation: NONE, Method: STANDARD PLATE).

Take `Cc1ccc2ccc3cc4ccccc4cc3c2c1`: the mutagenic call is “inactive; negative” (Test System: AMES SALMONELLA TYPHIMURIUM, Strain/Indicator: TA100, Metabolic Activation: RAT, INTACT HEPATOCYTES, AROCLOR 1254, Method: PREINCUBATION); “active; positive” (Test System: AMES SALMONELLA TYPHIMURIUM, Strain/Indicator: TA100, Metabolic Activation: RAT, NADPH-FORTIFIED HOMOGENIZED HEPATOCYTES, AROCLOR 1254, Method: PREINCUBATION); “active; positive” (Test System: AMES SALMONELLA TYPHIMURIUM, Strain/Indicator: TA100, Metabolic Activation: RAT, SONICATED HEPATOCYTES, AROCLOR 1254, Method: PREINCUBATION).

Consider `O=[N+]([O-])c1cccc(CO/N=C/c2nc3cc([N+](=O)[O-])ccc3n2Cc2ccc(Cl)cc2)c1`, for which the mutagenic call under setting [2] is “inactive; negative”; the mutagenic call (Test System: AMES SALMONELLA TYPHIMURIUM, Strain/Indicator: TA98, Metabolic Activation: RAT, LIVER, S-9, PHENOBARBITAL AND BETA-NAPHTHOFLAVONE, Method: STANDARD PLATE) is “inactive; negative”; the mutagenic call under setting [1] is “inactive; negative”; the mutagenic call (Test System: AMES SALMONELLA TYPHIMURIUM, Strain/Indicator: TA100, Metabolic Activation: RAT, LIVER, S-9, PHENOBARBITAL AND BETA-NAPHTHOFLAVONE, Method: STANDARD PLATE) is “inactive; negative”.

Consider `c1cc[c]([Sb]([c]2ccccc2)[c]2ccccc2)cc1`, for which the mutagenic call runs as follows: (Test System: AMES SALMONELLA TYPHIMURIUM, Strain/Indicator: TA1535, Metabolic Activation: RAT, LIVER, S-9, AROCLOR 1254, Method: STANDARD PLATE) “active; positive”; (Test System: Mouse lymphoma, Strain/Indicator: L5178Y (tk+/tk-), Metabolic Activation: None, Method: Suspension/plate) “inactive; negative”; (Test System: Mouse lymphoma, Strain/Indicator: L5178Y (tk+/tk-), Metabolic Activation: Rat, Liver, S-9, Aroclor 1254, Method: Suspension/plate) “active; equivocal (previous evaluation positive)”.

Regarding `C#C[C@]1(O)CC[C@H]2[C@@H]3CCc4cc(OC)ccc4[C@H]3CC[C@@]21C`, the mutagenic call was “active; positive (total aberrations excluding gaps); positive at higher dose levels” (End Point: IN VITRO CHROMOSOMAL ABERRATIONS, Test System: HUMAN PERIPHERAL LYMPHOCYTES, Metabolic Activation: NONE); “active; positive” (End Point: IN VIVO CHROMOSOMAL ABERRATIONS, Test System: BONE MARROW CELLS, Species: MOUSE, Strain/Sex: SWISS/MALE, Route: IP INJECTION (ONCE)); “active; positive” (End Point: IN VIVO MICRONUCLEUS, Test System: BONE MARROW POLYCHROMATIC ERYTHROCYTES, Species: MOUSE, Strain/Sex: SWISS/MALE, Route: IP INJECTION (SINGLE DOSE)); “inactive; negative” (Test System: AMES SALMONELLA TYPHIMURIUM, Strain/Indicator: TA97A, Metabolic Activation: NONE, Method: STANDARD PLATE); “inactive; negative” (Test System: AMES SALMONELLA TYPHIMURIUM, Strain/Indicator: TA97A, Metabolic Activation: RAT, LIVER, S-9, PHENOBARBITONE, Method: PREINCUBATION); “inactive; negative” under setting [2]. Further, the mutagenic call is, setting by setting: (Test System: AMES SALMONELLA TYPHIMURIUM, Strain/Indicator: TA98, Metabolic Activation: RAT, LIVER, S-9, PHENOBARBITONE, Method: PREINCUBATION) “inactive; negative”; under setting [1], “inactive; negative”; (Test System: AMES SALMONELLA TYPHIMURIUM, Strain/Indicator: TA100, Metabolic Activation: RAT, LIVER, S-9, PHENOBARBITONE, Method: PREINCUBATION) “inactive; negative”; (Test System: AMES SALMONELLA TYPHIMURIUM, Strain/Indicator: TA1535, Metabolic Activation: NONE, Method: STANDARD PLATE) “inactive; negative”; (Test System: AMES SALMONELLA TYPHIMURIUM, Strain/Indicator: TA1535, Metabolic Activation: RAT, LIVER, S-9, PHENOBARBITONE, Method: PREINCUBATION) “inactive; negative”; (Test System: HOST-MEDIATED ASSAY WITH SALMONELLA, Strain/Indicator: TA97A, Metabolic Activation: MALE SWISS MOUSE, SALMONELLA ADMINISTERED 4 HR AFTER 2ND INJECTION: SACRIFICE 2 HR LATER, Method: 2 INJECTIONS AT 12 HR INTERVAL) “inactive; negative”. Further, the mutagenic call by setting is: (Test System: HOST-MEDIATED ASSAY WITH SALMONELLA, Strain/Indicator: TA98, Metabolic Activation: MALE SWISS MOUSE, SALMONELLA ADMINISTERED 4 HR AFTER 2ND INJECTION: SACRIFICE 2 HR LATER, Method: 2 INJECTIONS AT 12 HR INTERVAL) “inactive; negative”; (Test System: HOST-MEDIATED ASSAY WITH SALMONELLA, Strain/Indicator: TA100, Metabolic Activation: MALE SWISS MOUSE, SALMONELLA ADMINISTERED 4 HR AFTER 2ND INJECTION: SACRIFICE 2 HR LATER, Method: 2 INJECTIONS AT 12 HR INTERVAL) “inactive; negative”; (Test System: HOST-MEDIATED ASSAY WITH SALMONELLA, Strain/Indicator: TA1535, Metabolic Activation: MALE SWISS MOUSE, SALMONELLA ADMINISTERED 4 HR AFTER 2ND INJECTION: SACRIFICE 2 HR LATER, Method: 2 INJECTIONS AT 12 HR INTERVAL) “inactive; negative”.
